IC50 data for 22 compounds are collected here from patent US20100056497A1, “AMIDE DERIVATIVE” (DAINIPPON SUMITOMO PHARMA CO., LTD, priority 2007, published 2010).

Each structure is given as a SMILES string. Where a name gives a salt, the structure may show the parent alone.

This experiment deals with T1, Recombinant human renin (Homo sapiens, UniProt P00797).
T1 sequence (P00797 67-406): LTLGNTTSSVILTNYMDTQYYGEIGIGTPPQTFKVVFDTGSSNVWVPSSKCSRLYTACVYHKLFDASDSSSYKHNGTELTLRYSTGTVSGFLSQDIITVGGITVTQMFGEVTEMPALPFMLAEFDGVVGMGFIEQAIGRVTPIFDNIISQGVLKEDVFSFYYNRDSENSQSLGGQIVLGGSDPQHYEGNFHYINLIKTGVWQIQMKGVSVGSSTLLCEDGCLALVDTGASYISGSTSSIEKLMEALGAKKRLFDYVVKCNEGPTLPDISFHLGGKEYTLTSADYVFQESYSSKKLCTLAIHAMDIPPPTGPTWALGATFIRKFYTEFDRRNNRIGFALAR
The experiment is described as follows: In vitro renin inhibitory activity assay (fluorescence, FRET peptide substrate). The class given is biochemical. As to conditions: 37° C., one hour, substrate 4 μM, pH 7.4. The protocol: In Vitro Renin Inhibitory Activity Assay
Recombinant human renin (50 ng) was reacted in 0.1M BEPES buffer (pH 7.4) containing 0.1M NaCl, 1 mM EDTA and 0.1 mg/mL BSA together with a substrate and a test compound at 37° C. for one hour. As the substrate, Arg-Glu(EDANS)-Ile-His-Pro-Phe-His-Leu-Val-Ile-His-Thr-Lys(DABCYL)-Arg or DABCYL-γ-Abu-Ile-His-Pro-Phe-His-Leu-Val-Ile-His-Thr-EDANS was added in such an amount so that the final concentration thereof became 4 μM. The elevated fluorescence intensity at the exciting wavelength 340 nm and the fluorescence wavelength 500 nm was measured by a fluorescence plate reader. The concentration of a test compound to be needed to inhibit an enzyme activity in the presence of a test compound in plural concentrations by 50% was calculated as an IC50 value.
The amino acid sequence disclosed in Seq ID:1 is an amino acid sequence used in the renin inhibitory activity assay.
The amino acid sequence disclosed in Seq ID:2 is an amino acid sequence used in the renin inhibitory activity assay.
As for `CCOC(=O)C[C@H]1CC[C@@H](N(C(=O)c2ccc(OC)c(OCCCOC)c2)C(C)C)CN1` (racemic) [Example 14, Ethyl ((rac.)-(2R,5R)-5-{isopropyl[4-methoxy-3-(3-methoxypropoxy)benzoyl]-amino}piperidin-2-yl)acetate], the half-maximal inhibitory concentration (IC50) came out at 930 nM.
The figure for `CCCN(CC1CC1)C(=O)C[C@H]1CC[C@@H](N(C(=O)c2ccc(OC)c(OCCCOC)c2)C(C)C)CN1` (racemic) [Example 20, N-((rac.)-(3R,6R)-6-{2-[(Cyclopropylmethyl)(propyl)amino]-2-oxoethyl}piperidin-3-yl)-N-isopropyl-4-methoxy-3-(3-methoxypropoxy)benzamide hydrochloride] is 420 nM; for `CCN(C(=O)C[C@H]1CC[C@@H](N(C(=O)c2ccc(OC)c(OCCCOC)c2)C(C)C)CN1)C(C)C` (racemic) [Example 22, N-((rac.)-(3R,6R)-6-{2-[Ethyl(isopropyl)amino]-2-oxoethyl}piperidin-3-yl)-N-isopropyl-4-methoxy-3-(3-methoxypropoxy)benzamide hydrochloride] it is 480 nM; for `COCCCOc1cc(C(=O)N(C(C)C)[C@@H]2CC[C@@H](CCN(C(=O)Cc3ccccc3)C3CC3)NC2)ccc1OC` (racemic) [Example 23, N-((rac.)-(3R,6S)-6-{2-[Cyclopropyl(phenylacetyl)amino]ethyl}piperidin-3-yl)-N-isopropyl-4-methoxy-3-(3-methoxypropoxy)benzamide hydrochloride] it is 330 nM.
`COCCCOc1cc(C(=O)N(C(C)C)C2CNC[C@@H](COC(=O)NCCc3ccccc3)C2)ccc1OC` (mixture of isomers) [Example 31, ((rac.)-(3S,5R)-5-{Isopropyl[4-methoxy-3-(3-methoxypropoxy)benzoyl]amino}-piperidin-3-yl)methyl(2-phenylethyl)carbamate hydrochloride]: the IC50 was found to be 240 nM.
The value for `COCCCOc1cc(C(=O)N(C(C)C)C2CNC[C@@H](C(=O)N(C)Cc3ccccc3)C2)ccc1OC` (mixture of isomers) [Example 41, (rac.)-(3S,5R)-N-Benzyl-5-{isopropy[4-methoxy-3-(3-methoxyproroxy)benzoyl]-amino}-N-methylpiperidine-3-carboxamide hydrochloride] was 430 nM.
The value for `COCCCOc1cc(C(=O)N(C(C)C)[C@H]2CNC[C@@H](CNC(=O)OCc3ccccc3)C2)ccc1OC` (racemic) [Example 43, Benzyl [((rac.)-(3S,5R)-5-{isopropyl[4-methoxy-3-(3-methoxypropoxy)benzoyl]-amino}piperidin-3-yl)methyl]carbamate hydrochloride] was 770 nM.
The figure for `COCCCOc1cc(C(=O)N(C(C)C)[C@H]2CNCC[C@@H]2c2ccccc2)ccc1OC` (racemic) [Example 45, N-Isopropyl-4-methoxy-3-(3-methoxypropoxy)-N-[(rac.)-(3R,4R)-4-phenylpiperidin-3-yl]benzamide hydrochloride] is 410 nM; for `COCCCOc1cc(C(=O)N(C(C)C)[C@H]2CNC[C@@H](COc3ccccc3-c3ccccc3)C2)ccc1OC` (racemic) [Example 46, N-{(rac.)-(3R,5S)-5-[(Biphenyl-2-yloxy)methyl]piperidin-3-yl}-N-isopropyl-4-methoxy-3-(3-methoxypropoxy)benzamide hydrochloride] it is 790 nM.
Consider `COCCCOc1cc(C(=O)N(C(C)C)[C@H]2CNC[C@@H](COc3cccc(-c4ccccc4)c3)C2)ccc1OC` (racemic) [Example 48, N-{(rac.)-(3R,5S)-5-[(Biphenyl-3-yloxy)methyl]piperidin-3-yl}-N-isopropyl-4-methoxy-3-(3-methoxypropoxy)benzamide hydrochloride], for which the IC50 worked out at 620 nM.
The figure for `COCCCOc1cc(C(=O)N(C(C)C)[C@H]2CNC[C@@H](COc3cccc(Oc4ccccc4)c3)C2)ccc1OC` (racemic) [Example 49, N-Isopropyl-4-methoxy-3-(3-methoxypropoxy)-N-{(rac.)-(3R,5S)-5-[(3-phenoxy-phenoxy)methyl]piperidin-3-yl}benzamide hydrochloride] is 740 nM.
The value for `COCCCOc1cc(C(=O)N(C(C)C)[C@H]2CNC[C@@H](COc3cccc(OCc4ccccc4)c3)C2)ccc1OC` (racemic) [Example 50, hydrochloride] was 540 nM; that for `COCCCOc1cc(C(=O)N(C(C)C)[C@@H]2CC[C@H](CC(=O)N(C(C)C)C3CCCCC3)NC2)ccc1OC` (racemic) [Example 51, N-((rac.)-(3R,6R)-6-{2-[Cyclohexyl(isopropyl)amino]-2-oxoethyl}piperidin-3-yl)-N-isopropyl-4-methoxy-3-(3-methoxypropoxy)benzamide hydrochloride] was 500 nM.
The figure for `COCCCOc1cc(C(=O)N(C(C)C)[C@@H]2CC[C@H](CC(=O)NC3CC3)NC2)ccc1OC` (racemic) [Example 52, N-{ (rac.)-(3R,6R)-6-[2-(Cyclopropylamino)-2-oxoethyl]piperidin-3-yl)-N-isopropyl-4-methoxy-3-(3-methoxypropoxy)benzamide hydrochloride] is 590 nM; for `COCCCOc1cc(C(=O)N(C(C)C)[C@@H]2CC[C@H](CCN(C(=O)Cc3ccccc3)C(C)C)NC2)ccc1OC` (racemic) [Example 55, N-Isopropyl-N-((rac.)-(3R,6R)-6-{2-[isopropyl(phenylacetyl)amino]ethyl}piperidin-3-yl)-4-methoxy-3-(3-methoxypropoxy)benzamide hydrochloride] it is 690 nM.
`COCCCOc1cc(C(=O)N(C(C)C)[C@H]2CNC[C@H](COC(=O)NC(C)C)C2)ccc1OC` (racemic) [Example 57, ((rac.)-(3R,5R)-5-{Isopropyl[4-methoxy-3-(3-methoxypropoxy)benzoyl]amino}-piperidin-3-yl)methyl isopropylcarbamate hydrochloride]: the half-inhibitory concentration (IC50) was determined as 830 nM.
The figure for `CCN(CCc1ccccc1)C(=O)OC[C@@H]1CNC[C@H](N(C(=O)c2ccc(OC)c(OCCCOC)c2)C(C)C)C1` (racemic) [Example 58] is 150 nM; for `CCCN(CCc1ccccc1)C(=O)OC[C@@H]1CNC[C@H](N(C(=O)c2ccc(OC)c(OCCCOC)c2)C(C)C)C1` (racemic) [Example 59] it is 110 nM; for `COCCCOc1cc(C(=O)N(C[C@@H]2CCNC2)C(C)C)ccc1OC` [Compound B, reference compound] it is 2300 nM.
Consider `COCCCOc1cc(C(=O)N(C(C)C)[C@@H]2CCCNC2)ccc1OC` [Example 1, N-Isopropyl-4-methoxy-3-(3-methoxypropoxy)-N-[(3R)-piperidin-3-yl]benzamide hydrochloride], for which the IC50 was 330 nM.
The figure for `COCCCOc1cc(C(=O)N(C(C)C)[C@@H]2CCCNC2)c(C)cc1OC` [Example 27, N-Isopropyl-4-methoxy-5-(3-methoxypropoxy)-2-methyl-N-[(3R)-piperidin-3-yl]-benzamide] is 190 nM; for `COCCCOc1cc(C(=O)N(C(C)C)[C@@H]2CCCNC2)c(Cl)cc1OC` [Example 53, 2-Chloro-N-isopropyl-methoxy-5-(3-methoxypropoxy)-N-[(3R)-piperidin-3-yl]-benzamide hydrochloride] it is 220 nM.
